Test results: patent US9828351B2, “Enzyme interacting agents” (MONASH UNIVERSITY, priority 2014, dated 2017)

Experiments:
[1] = target: T1, recombinant his tagged human SphK1 (Homo sapiens, UniProt Q9NYA1); test: SphK1 activity assay (32P-labelled S1P production); format: biochemical; details: 10 μM compound; % of activity compared to control (DMSO vehicle only)
T1 construct: His tag; made in house; host or cells: insect cells (baculovirus system)
Description: (§1) The SphK assays employed, measure SphK activity through the production of ^32P-labelled S1P following the addition of exogenous Sph and [γ^32P] ATP.
(§2) Activities of SphK1 and SphK2 were determined using identical assay conditions with the exception that SphK1 assays used 3 ng/assay recombinant his tagged human SphK1 (made in the lab in a baculovirus system using insect cells), while SphK2 assays used 30 ng/assay recombinant human SphK2 (purchased by Johnson and Johnson).
(§3) Compounds were dissolved in DMSO at 10 mM, the mixture was vortexed (and sonicated if necessary). Stock solutions were kept at 4° C. until used.
(§4) Aliquots were made containing 100 μM drug compound. These aliquots were then diluted in assay buffer: 100 mM tris/HCl pH 7.4, 100 mM NaCl, 1 mM sodium orthovanadate, 10 mM NaF to make up a 10 μM solution.
(§5) Recombinant enzyme was diluted in assay buffer (above) to make up a final concentration of 0.03 ng/μL (SphK1) or 0.33 ng/μL (SphK2).
(§6) 40 μL recombinant enzyme was added to an Eppendorf® Safe-Lock® microcentrifuge tube. This was followed by the addition of drug compound from prepared aliquots, before adding ATP, [γ^32P]ATP and Sph. Note: ATP stock is made up in 1M Tris pH 7.4 and 200 mM MgCl2. This allows ATP to complex with Mg and be available as a substrate.
(§7) The rest of the reaction mixture was then added to the enzyme sample (Table 1). All reactions were performed as triplicates.
(§8) Reaction mixture was prepared with sufficient volume to assay all of the required samples. To do this, each of the volumes shown was multiplied by n+1, where n is the number of samples to be assayed. Assay buffer used is made up of 100 mM tris/HCl pH 7.4, 100 mM NaCl, 1 mM sodium orthovanadate and 10 mM NaF.
(§9) The mixture was then incubated at 37° C. for 20 min (SphK1)/45 min (SphK2).
(§10) To the 100 μL assay mixture, add 270 μl of chloroform/methanol/conc. HCl (100:200:1).
(§11) 20 μL of 5 M KCl was then added to the assay mixture.
(§12) 70 μL of chloroform was added to create phase separation. The solution was vortexed to mix well.
(§13) The solution was then centrifuged for 5 min at 13,000×g to fully separate the phases.
(§14) The upper aqueous/methanol phase was separated by aspiration.
(§15) 50 μL of the remaining lower chloroform phase […] was applied onto the TLC plate by repeatedly spotting a few microliters of liquid (<5 mm diameter circle) between each sample spot with the pipette tip. The liquid was then allowed to absorb into the plate before drying with a stream of air.
(§16) The TLC plate was developed in a glass TLC developing tank with 1-butanol/ethanol/glacial acetic acid/H2O (8:2:1:2) until the mobile phase is within 1 cm of the top of the TLC plate.
(§17) The TLC plate was then exposed to a storage phosphor screen overnight. Storage phosphor screens work by capturing images produced by ionising radiation (e.g. ^32P). The phosphorimager stimulates the screen which uses lasers to convert the latent signal to light. Light is proportional to the amount of radioactivity in the sample. The image is then quantified using standard quantification software (ImageQuant™). Whatman paper with the assay mixture dilutions, was included to assist quantification of the phosphor signal.
(§18) Once the storage phosphor screen was read using the phosphorimager, S1P spots, which have an Rf of 0.7 with the mobile phase employed, were quantified.
(§19) The S1P spot intensity can be converted to the amount of phosphate transferred/min/mg protein.

[2] = test system: MCF7 breast cancer cells; test: Anticancer activity in MCF7 cell lines, MTS assay; format: cell-based; details: Homo sapiens, concentration required to inhibit cell proliferation by 50%, 72 hrs, read-out: MCF-7 IC50
Description: Measurement of Anticancer Activity in MCF7 Cell Lines
MCF7 breast cancer cells were treated with the test compounds and incubated at 37° C., 5% CO2 in air for 72 hrs. The MTS assay was conducted with addition of prepared MTS solution followed by 2 hr incubation, an OD reading and the raw data recorded. The data was managed in tabular form, values adjusted for vehicle control, and the adjusted values graphed as a sigmoidal curve and the EC50 value calculated.

[3] = target: T2, recombinant human SphK2 (Homo sapiens, UniProt Q9NRA0); test: SphK2 activity assay (32P-labelled S1P production); format: biochemical; details: 10 μM compound; % of activity compared to control (DMSO vehicle only); read-out: SphK2% actvity at 10 μm
T2 construct: purchased Johnson and Johnson
T2 sequence (Q9NRA0 1-654): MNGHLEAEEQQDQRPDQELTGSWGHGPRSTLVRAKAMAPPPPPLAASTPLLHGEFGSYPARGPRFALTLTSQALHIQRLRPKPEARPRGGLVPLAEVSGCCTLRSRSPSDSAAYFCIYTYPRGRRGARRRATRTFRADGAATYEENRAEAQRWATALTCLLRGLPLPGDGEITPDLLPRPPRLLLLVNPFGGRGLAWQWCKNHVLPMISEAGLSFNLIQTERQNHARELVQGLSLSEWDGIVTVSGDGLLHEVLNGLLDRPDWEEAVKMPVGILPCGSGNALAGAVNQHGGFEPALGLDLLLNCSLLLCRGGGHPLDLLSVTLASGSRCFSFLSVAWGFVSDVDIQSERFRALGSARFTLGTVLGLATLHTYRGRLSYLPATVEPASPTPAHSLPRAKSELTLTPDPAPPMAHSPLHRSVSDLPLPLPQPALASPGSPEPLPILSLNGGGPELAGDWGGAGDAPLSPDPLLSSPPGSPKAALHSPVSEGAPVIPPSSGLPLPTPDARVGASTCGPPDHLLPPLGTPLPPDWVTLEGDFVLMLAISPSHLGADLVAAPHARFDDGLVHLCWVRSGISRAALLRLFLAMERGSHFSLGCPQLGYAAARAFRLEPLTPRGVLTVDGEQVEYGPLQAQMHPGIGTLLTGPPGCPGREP
Description: as §1, §2, §3, §4, §5, §6, §7, §8, §9, §10, §11, §12, §13, §14, §15, §16, §17, §18, §19

T1 sequence (Q9NYA1 whole entry): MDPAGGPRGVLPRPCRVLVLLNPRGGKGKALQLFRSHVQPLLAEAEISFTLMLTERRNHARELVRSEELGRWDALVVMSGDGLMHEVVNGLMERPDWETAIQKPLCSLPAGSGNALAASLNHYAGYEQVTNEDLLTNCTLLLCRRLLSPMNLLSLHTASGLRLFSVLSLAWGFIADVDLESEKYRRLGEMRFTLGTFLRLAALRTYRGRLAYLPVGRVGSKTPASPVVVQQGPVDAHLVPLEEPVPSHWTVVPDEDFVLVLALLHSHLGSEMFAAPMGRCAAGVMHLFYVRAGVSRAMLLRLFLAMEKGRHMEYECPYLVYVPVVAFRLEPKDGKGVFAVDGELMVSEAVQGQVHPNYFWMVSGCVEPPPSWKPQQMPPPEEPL

With `Oc1ccc(Nc2nc(-c3ccc(Cl)cc3)cs2)cc1` [SKI-II, reference compound] the activity at 10 µM [1] was 50 to 80%, the IC50 [2] was 10 to 100 µM and the remaining activity at 10 µM [3] was 80 to 100%.
